Among the data in patent US10654808B2, “Tyrosine kinase inhibitor and pharmaceutical composition comprising same” (GUANGDONG RAYNOVENT BIOTECH CO., LTD., priority 2015, dated 2020) are IC50 values, retold here.

Usually IC50 stands for the midpoint of a concentration-inhibition curve.

SMILES strings stand for the structures.

Common to all, as to assay type: biochemical
For experiment [1], the target named is T1, VEGFR2 (Homo sapiens, UniProt P35968).
T1 construct: purchased Life technology
Description: Z'-LYTE in vitro enzyme activity assay, VEGFR2. The settings on record: 100 μM ATP, 60 minutes, room temperature; read-out: IC50 detected by Z'-LYTE, VEGFR2. The essentials: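 Reaction with 3 nM VEGFR2, 2 μM Tyr1 peptide and 100 μM ATP in HEPES pH 7.5/MgCl2/EGTA/BRIJ-35, 1% DMSO, 60 min at room temperature; development reagent then 60 min at 23° C. Compounds tested at 11 threefold dilutions, 10 μM–0.17 nM final, in duplicate; IC50 from 4-parameter fit of inhibition.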

The target in experiment [2] is T2, PDGFRB (Homo sapiens, UniProt P09619).
T2 construct: purchased Millipore
T2 sequence (P09619 33-1106): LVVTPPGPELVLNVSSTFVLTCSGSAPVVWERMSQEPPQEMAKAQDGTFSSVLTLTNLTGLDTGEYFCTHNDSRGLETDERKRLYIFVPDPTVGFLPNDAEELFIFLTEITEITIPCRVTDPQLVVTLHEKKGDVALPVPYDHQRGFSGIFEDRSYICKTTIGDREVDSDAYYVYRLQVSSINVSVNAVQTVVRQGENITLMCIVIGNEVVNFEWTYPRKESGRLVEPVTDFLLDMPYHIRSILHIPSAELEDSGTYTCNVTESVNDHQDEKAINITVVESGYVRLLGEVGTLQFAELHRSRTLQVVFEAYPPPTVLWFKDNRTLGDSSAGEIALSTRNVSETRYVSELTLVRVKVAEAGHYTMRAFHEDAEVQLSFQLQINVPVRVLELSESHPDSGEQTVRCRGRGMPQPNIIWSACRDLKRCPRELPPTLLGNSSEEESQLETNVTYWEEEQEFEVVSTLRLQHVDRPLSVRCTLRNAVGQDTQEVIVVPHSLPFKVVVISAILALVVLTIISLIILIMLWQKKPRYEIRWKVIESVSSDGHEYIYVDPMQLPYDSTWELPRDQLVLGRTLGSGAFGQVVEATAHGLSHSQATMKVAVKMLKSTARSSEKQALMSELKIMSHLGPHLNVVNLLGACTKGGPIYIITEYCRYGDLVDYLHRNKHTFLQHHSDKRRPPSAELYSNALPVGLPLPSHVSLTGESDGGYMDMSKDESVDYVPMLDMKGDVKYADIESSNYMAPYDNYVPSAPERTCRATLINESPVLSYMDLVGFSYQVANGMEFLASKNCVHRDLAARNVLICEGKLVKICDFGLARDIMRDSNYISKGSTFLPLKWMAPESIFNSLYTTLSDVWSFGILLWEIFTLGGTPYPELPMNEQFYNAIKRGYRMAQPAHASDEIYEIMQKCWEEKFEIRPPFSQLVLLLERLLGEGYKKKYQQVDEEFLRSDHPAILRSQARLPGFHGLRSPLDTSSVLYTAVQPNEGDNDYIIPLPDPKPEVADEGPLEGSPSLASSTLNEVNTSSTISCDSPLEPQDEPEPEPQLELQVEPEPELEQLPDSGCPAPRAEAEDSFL
In words: Z'-LYTE in vitro enzyme activity assay, PDGFRB. The settings on record: 100 μM ATP, 60 minutes, room temperature; read-out: IC50 detected by Z'-LYTE, PDGFRB. The essentials:
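Z′-LYTE FRET kinase assay using 40 nM PDGFRB, 2 μM Tyr4 peptide and 100 μM ATP in HEPES pH 7.5 with Mg2+/Mn2+ and 1% DMSO. The reaction ran 60 min at room temperature, followed by development for 60 min at 23 °C. IC50 values came from 4-parameter fits over 11 concentrations (10 μM–0.17 nM).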

Experiment [3] concerns the target T3, FGFR1 (Homo sapiens, UniProt P11362).
T3 construct: purchased Life technology
In words: Z'-LYTE in vitro enzyme activity assay, FGFR1. The settings on record: 25 μM ATP, 60 minutes, room temperature; read-out: IC50 detected by Z'-LYTE, FGFR1. In a few lines: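 Z′-LYTE FRET assay with 1 nM FGFR1, 2 μM Tyr4 peptide and 25 μM ATP in HEPES pH 7.5 with Mg/Mn, 60 min at room temperature, then development 60 min at 23 °C. Compounds tested at 11 concentrations from 10 μM to 0.17 nM in 1% DMSO. IC50 from 4-parameter fit of inhibition.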

T1 sequence (P35968 20-1356): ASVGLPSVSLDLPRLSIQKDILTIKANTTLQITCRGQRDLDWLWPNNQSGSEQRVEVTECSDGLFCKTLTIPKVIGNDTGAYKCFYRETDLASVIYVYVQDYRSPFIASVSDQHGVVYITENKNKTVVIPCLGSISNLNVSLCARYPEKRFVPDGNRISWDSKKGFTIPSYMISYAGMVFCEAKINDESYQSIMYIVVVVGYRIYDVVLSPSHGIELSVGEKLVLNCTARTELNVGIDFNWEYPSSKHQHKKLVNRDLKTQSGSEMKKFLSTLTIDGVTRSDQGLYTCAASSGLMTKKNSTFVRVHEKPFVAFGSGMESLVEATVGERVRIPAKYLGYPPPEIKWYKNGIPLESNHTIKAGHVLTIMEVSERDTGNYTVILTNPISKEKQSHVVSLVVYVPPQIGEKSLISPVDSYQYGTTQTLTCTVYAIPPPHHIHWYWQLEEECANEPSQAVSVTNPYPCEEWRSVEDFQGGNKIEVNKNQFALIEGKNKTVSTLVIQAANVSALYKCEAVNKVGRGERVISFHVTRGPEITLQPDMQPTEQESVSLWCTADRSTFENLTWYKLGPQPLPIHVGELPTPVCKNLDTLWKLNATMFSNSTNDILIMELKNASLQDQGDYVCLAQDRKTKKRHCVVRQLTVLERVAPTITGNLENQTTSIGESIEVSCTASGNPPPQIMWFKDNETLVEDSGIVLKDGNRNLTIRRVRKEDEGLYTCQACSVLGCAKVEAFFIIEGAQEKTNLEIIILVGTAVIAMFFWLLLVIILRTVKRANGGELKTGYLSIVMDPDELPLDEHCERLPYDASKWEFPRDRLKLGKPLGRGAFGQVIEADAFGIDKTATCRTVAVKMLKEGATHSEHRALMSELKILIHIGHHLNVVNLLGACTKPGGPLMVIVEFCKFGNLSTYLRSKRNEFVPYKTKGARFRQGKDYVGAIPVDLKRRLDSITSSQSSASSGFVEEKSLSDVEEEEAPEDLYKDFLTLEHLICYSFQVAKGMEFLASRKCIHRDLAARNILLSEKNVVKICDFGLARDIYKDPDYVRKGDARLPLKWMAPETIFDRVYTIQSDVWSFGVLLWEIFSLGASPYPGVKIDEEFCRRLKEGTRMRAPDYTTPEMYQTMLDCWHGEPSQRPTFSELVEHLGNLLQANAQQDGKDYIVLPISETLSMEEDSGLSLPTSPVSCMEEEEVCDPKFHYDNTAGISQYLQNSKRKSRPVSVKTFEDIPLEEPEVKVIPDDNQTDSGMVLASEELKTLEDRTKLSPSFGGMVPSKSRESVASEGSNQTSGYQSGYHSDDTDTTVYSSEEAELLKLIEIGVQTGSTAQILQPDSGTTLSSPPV
T3 sequence (P11362 22-822): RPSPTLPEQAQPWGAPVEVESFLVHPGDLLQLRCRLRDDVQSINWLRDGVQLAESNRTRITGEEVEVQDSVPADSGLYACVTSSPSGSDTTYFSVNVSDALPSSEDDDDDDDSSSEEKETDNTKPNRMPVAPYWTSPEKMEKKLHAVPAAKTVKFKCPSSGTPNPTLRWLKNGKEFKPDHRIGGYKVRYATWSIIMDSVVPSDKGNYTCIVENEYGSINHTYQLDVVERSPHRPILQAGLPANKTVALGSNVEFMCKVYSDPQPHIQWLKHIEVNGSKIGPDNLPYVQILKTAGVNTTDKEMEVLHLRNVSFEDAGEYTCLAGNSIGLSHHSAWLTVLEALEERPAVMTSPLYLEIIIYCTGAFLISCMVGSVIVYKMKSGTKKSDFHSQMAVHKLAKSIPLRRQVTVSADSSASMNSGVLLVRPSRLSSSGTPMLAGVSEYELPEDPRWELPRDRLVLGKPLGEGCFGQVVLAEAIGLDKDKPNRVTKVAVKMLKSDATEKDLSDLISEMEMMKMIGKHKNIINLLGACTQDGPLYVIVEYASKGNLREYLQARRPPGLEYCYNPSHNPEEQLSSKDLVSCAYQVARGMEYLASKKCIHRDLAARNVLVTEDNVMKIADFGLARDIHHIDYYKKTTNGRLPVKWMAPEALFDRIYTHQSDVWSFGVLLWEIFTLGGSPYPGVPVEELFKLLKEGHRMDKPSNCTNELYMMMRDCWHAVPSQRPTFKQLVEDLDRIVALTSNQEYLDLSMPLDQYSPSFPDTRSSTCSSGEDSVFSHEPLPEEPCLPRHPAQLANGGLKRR

As for `COc1cc2nccc(Oc3ccc4[nH]cc(C#N)c4c3)c2cc1C(N)=O` [Example 162], the IC50 in experiment [1], in experiment [2] and in experiment [3] was 0.2 to 1 µM in each case.

With `COc1cc2nccc(Oc3ccc4c(c3)CN(CC(F)F)C(=O)N4)c2cc1C(N)=O` [Example 164], the IC50 in experiment [1], in experiment [2] and in experiment [3] was 0.2 to 1 µM in each case.

In the case of `COc1cc2nccc(Oc3ccc(N4CCNC4=O)c(Cl)c3)c2cc1C(N)=O` [Example 165], the IC50 in experiment [1], in experiment [2] and in experiment [3] was 0.2 to 1 µM in each case.

For `COc1cc2nccc(Oc3ccc(N4C(=O)CNC4=S)c(Cl)c3)c2cc1C(N)=O` [Example 166], the half-inhibitory concentration (IC50) was less than 0.05 µM in experiment [1], 0.05 to 0.2 µM in experiment [2] and 0.2 to 1 µM in experiment [3].

As to `COc1cc2nccc(Oc3ccc(N4CC(=O)NC4=S)c(Cl)c3)c2cc1C(N)=O` [Example 167], the IC50 in experiment [1] is less than 0.05 µM; in experiment [2], less than 0.05 µM; in experiment [3], 0.2 to 1 µM.

In the case of `COc1cc2nccc(Oc3ccc(NC(=O)C4(C(=O)NC5CC5)CC4)c(Cl)c3)c2cc1C(N)=O` [Example 168], the IC50 in experiment [1], in experiment [2] and in experiment [3] was 0.2 to 1 µM throughout.

Consider `COc1ccc2c(Oc3ccc(NC(=S)NC4CC4)c(Cl)c3)ccnc2c1` [Example 170], for which the IC50 in experiment [1] was less than 0.05 µM; in experiment [2], 0.2 to 1 µM; in experiment [3], 0.2 to 1 µM.

In the case of `COc1ccc2c(Oc3ccc(NC(=S)N4CC(F)(F)C4)c(Cl)c3)ccnc2c1` [Example 171], the IC50 in experiment [1], in experiment [2] and in experiment [3] was 0.2 to 1 µM in each case.

For `CC1(C)NC(=O)c2cc3c(Oc4ccc(NC(=S)NC5CC5)c(Cl)c4)ccnc3cc2O1` [Example 172], the IC50 in experiment [1], in experiment [2] and in experiment [3] was 0.2 to 1 µM each time.

`CCC1NC(=O)c2cc3c(Oc4ccc(NC(=S)NC5CC5)c(Cl)c4)ccnc3cc2O1` (stereo not drawn) [Example 173]: the 50% inhibitory concentration (IC50) in experiment [1], in experiment [2] and in experiment [3] was 0.2 to 1 µM in each case.

Turning to `COc1cc2nccc(Oc3ccc(NC(=S)NC4CC4)c(Cl)c3)c2cc1C(C)(C)O` [Example 175], the IC50 in experiment [1], in experiment [2] and in experiment [3] was 0.2 to 1 µM each time.

Take `COc1cc2nccc(Oc3ccc(CC(=O)N4CCCC4)cc3)c2cc1C(N)=O` [Example 176]: the half-inhibitory concentration (IC50) in experiment [1], in experiment [2] and in experiment [3] was 0.2 to 1 µM throughout.

Consider `COc1cc2nccc(Oc3ccc(CC(=O)N4CC(F)(F)C4)cc3)c2cc1C(N)=O` [Example 177], for which the IC50 in experiment [1] is 0.2 to 1 µM; in experiment [2], 0.05 to 0.2 µM; in experiment [3] it was 0.2 to 1 µM.

With `COC(=O)c1cc2c(Oc3ccc(NC(=S)N4CC(F)(F)C4)c(Cl)c3)ccnc2cc1OC` [Example 178], the IC50 in experiment [1], in experiment [2] and in experiment [3] was 0.2 to 1 µM throughout.

`COc1cc2nccc(Oc3ccc(NC(=S)N4CC(F)(F)C4)c(Cl)c3)c2cc1NC(C)=O` [Example 180]: the IC50 in experiment [1], in experiment [2] and in experiment [3] was 0.2 to 1 µM each time.

Consider `COc1cc2nccc(Oc3ccc(NC(=S)N4CCCC4)c(Cl)c3)c2cc1NC(C)=O` [Example 181], for which the IC50 in experiment [1], in experiment [2] and in experiment [3] was 0.2 to 1 µM throughout.

As for `COc1cc2nccc(Oc3ccc(NC(=S)NC4CC4)c(Cl)c3)c2cc1NC(C)=O` [Example 182], the results for the IC50 in experiment [1], in experiment [2] and in experiment [3] were 0.05 to 0.2 µM, 0.2 to 1 µM and 0.2 to 1 µM, respectively.

Consider `COc1cc2nccc(Oc3ccc(NC(=S)N4CC(F)(F)C4)c(Cl)c3)c2cc1C(F)(F)F` [Example 184], for which the IC50 in experiment [1], in experiment [2] and in experiment [3] was 0.2 to 1 µM in each case.

For the compound `COc1cc2nccc(Oc3ccc4c(C(=O)NC5CC5)c[nH]c4c3)c2cc1C(N)=O` [Example 186], the IC50 was less than 0.05 µM in experiment [1], 0.2 to 1 µM in experiment [2] and 0.2 to 1 µM in experiment [3].

For `COc1cc2nccc(Oc3ccc4c(C(=O)N5CC(F)(F)C5)coc4c3)c2cc1C(N)=O` [Example 187], the concentration for half-maximal inhibition (IC50) in experiment [1], in experiment [2] and in experiment [3] was 0.2 to 1 µM each time.

As to `COc1cc2nccc(Oc3ccc4c(C(=O)N5CCCC5)c[nH]c4c3)c2cc1C(N)=O` [Example 188], the IC50 in experiment [1], in experiment [2] and in experiment [3] was 0.2 to 1 µM throughout.

Take `COc1cc2nccc(Oc3ccc4c(C(=O)N5CC(F)(F)C5)c[nH]c4c3)c2cc1C(N)=O` [Example 189]: the IC50 in experiment [1], in experiment [2] and in experiment [3] was 0.2 to 1 µM each time.

As for `COc1cc2nccc(Oc3ccc4c(NC(=S)NC5CC5)nn(C)c4c3)c2cc1C(N)=O` [Example 193], the IC50 in experiment [1] fell in the range of 0.2 to 1 µM; in experiment [2], 0.05 to 0.2 µM; in experiment [3], 0.2 to 1 µM.

For the compound `COc1cc2nccc(Oc3cc(Cl)c4c(C(=O)N5CCCC5)coc4c3)c2cc1C(N)=O` [Example 194], the half-maximal inhibitory concentration (IC50) in experiment [1], in experiment [2] and in experiment [3] was 0.2 to 1 µM in each case.

Turning to `COc1cc2nccc(Oc3cc(Cl)c4c(C(=O)N5CC(F)(F)C5)coc4c3)c2cc1C(N)=O` [Example 195], the IC50 in experiment [1], in experiment [2] and in experiment [3] was 0.2 to 1 µM in each case.

Turning to `COc1cc2nccc(Oc3cc(Cl)c4c(C(=O)NC5CC5)coc4c3)c2cc1C(N)=O` [Example 196], the IC50 in experiment [1], in experiment [2] and in experiment [3] was 0.2 to 1 µM each time.

On to `COc1cc2nccc(Oc3cc4occ(C(=O)N5CCCC5)c4cc3Cl)c2cc1C(N)=O` [Example 197], for which the IC50 in experiment [1], in experiment [2] and in experiment [3] was 0.2 to 1 µM throughout.

Take `COc1cc2nccc(Oc3cc4occ(C(=O)N5CC(F)(F)C5)c4cc3Cl)c2cc1C(N)=O` [Example 198]: the 50% inhibitory concentration (IC50) in experiment [1], in experiment [2] and in experiment [3] was 0.2 to 1 µM in each case.

On to `COc1cc2nccc(Oc3cc4occ(C(=O)NC5CC5)c4cc3Cl)c2cc1C(N)=O` [Example 199], for which the values for the IC50 in experiment [1], in experiment [2] and in experiment [3] were 0.05 to 0.2 µM, less than 0.05 µM and 0.2 to 1 µM, respectively.

On to `COc1cc2nccc(Oc3ccc4c(C(=O)N5CC[C@@H](O)C5)coc4c3)c2cc1C(N)=O` [Example 201], for which the IC50 in experiment [1], in experiment [2] and in experiment [3] was 0.2 to 1 µM throughout.

For `COc1cc2nccc(Oc3ccc4c(C(=O)N5CC[C@@H](F)C5)coc4c3)c2cc1C(N)=O` [Example 202], the IC50 in experiment [1], in experiment [2] and in experiment [3] was 0.2 to 1 µM throughout.

Regarding `COc1cc2nccc(Oc3ccc4c(C(=O)N5CC[C@H](O)C5)coc4c3)c2cc1C(N)=O` [Example 203], the figures for the IC50 in experiment [1], in experiment [2] and in experiment [3] were 0.2 to 1 µM, 0.05 to 0.2 µM and 0.2 to 1 µM, respectively.

As for `COc1cc2nccc(Oc3cc(Br)c4c(C(=O)N5CC(F)(F)C5)coc4c3)c2cc1C(N)=O` [Example 204], the IC50 in experiment [1], in experiment [2] and in experiment [3] was 0.2 to 1 µM in each case.

As to `COc1cc2nccc(Oc3ccc4c(C(=O)N5CC[C@H](F)C5)coc4c3)c2cc1C(N)=O` [Example 205], the IC50 in experiment [1], in experiment [2] and in experiment [3] was 0.2 to 1 µM each time.

`COc1cc2nccc(Oc3ccc4c(C(=O)N5CCCC5)coc4c3)c2cc1C(N)=O` [Example 206]: the IC50 in experiment [1], in experiment [2] and in experiment [3] was 0.2 to 1 µM throughout.

With `CCNC(=O)c1coc2cc(Oc3ccnc4cc(OC)c(C(N)=O)cc34)c(F)cc12` [Example 208], the figures for the IC50 in experiment [1], in experiment [2] and in experiment [3] were 0.05 to 0.2 µM, less than 0.05 µM and 0.2 to 1 µM, respectively.

Regarding `[2H]C([2H])([2H])NC(=O)c1coc2cc(Oc3ccnc4cc(OC)c(C(N)=O)cc34)c(Cl)cc12` [Example 211], the IC50 is 0.05 to 0.2 µM in experiment [1], less than 0.05 µM in experiment [2] and 0.2 to 1 µM in experiment [3].

For `Cn1cncc1-c1ccc2c(Oc3ccc(NC(=S)NC4CC4)c(Cl)c3)ccnc2c1` [Example 213], the IC50 in experiment [1] is less than 0.05 µM; in experiment [2], 0.05 to 0.2 µM; in experiment [3], 0.05 to 0.2 µM.

On to `O=C(Nc1ccc(Oc2ccnc3cc(-c4cncn4-c4ccccc4)ccc23)c(F)c1Cl)NC1CC1` [Example 227], for which the IC50 lay within 0.05 to 0.2 µM in experiment [1], 0.2 to 1 µM in experiment [2] and 0.2 to 1 µM in experiment [3].

For `O=C(Nc1ccc(Oc2ccnc3cc(-c4cn(-c5ccccc5)cn4)ccc23)c(F)c1Cl)NC1CC1` [Example 228], the 50% inhibitory concentration (IC50) in experiment [1], in experiment [2] and in experiment [3] was 0.2 to 1 µM throughout.

Take `Cc1nc(-c2ccc3c(Oc4ccc(NC(=O)NC5CC5)c(Cl)c4F)ccnc3c2)cn1C` [Example 229]: the IC50 in experiment [1], in experiment [2] and in experiment [3] was less than 0.05 µM each time.
